From the Kinase Knowledgebase extract (Sharma et al. 2016) come the findings set out here.

The term IC50 denotes the concentration that gives 50% inhibition. Low values mean higher potency, high ones lower potency.

The experiment concerns the target PIK3CG (human) (UniProt P48736). In words: Assessment of PIK3CG Kinase Activity.

Chain of PIK3CG (human) (P48736 whole entry, looked up): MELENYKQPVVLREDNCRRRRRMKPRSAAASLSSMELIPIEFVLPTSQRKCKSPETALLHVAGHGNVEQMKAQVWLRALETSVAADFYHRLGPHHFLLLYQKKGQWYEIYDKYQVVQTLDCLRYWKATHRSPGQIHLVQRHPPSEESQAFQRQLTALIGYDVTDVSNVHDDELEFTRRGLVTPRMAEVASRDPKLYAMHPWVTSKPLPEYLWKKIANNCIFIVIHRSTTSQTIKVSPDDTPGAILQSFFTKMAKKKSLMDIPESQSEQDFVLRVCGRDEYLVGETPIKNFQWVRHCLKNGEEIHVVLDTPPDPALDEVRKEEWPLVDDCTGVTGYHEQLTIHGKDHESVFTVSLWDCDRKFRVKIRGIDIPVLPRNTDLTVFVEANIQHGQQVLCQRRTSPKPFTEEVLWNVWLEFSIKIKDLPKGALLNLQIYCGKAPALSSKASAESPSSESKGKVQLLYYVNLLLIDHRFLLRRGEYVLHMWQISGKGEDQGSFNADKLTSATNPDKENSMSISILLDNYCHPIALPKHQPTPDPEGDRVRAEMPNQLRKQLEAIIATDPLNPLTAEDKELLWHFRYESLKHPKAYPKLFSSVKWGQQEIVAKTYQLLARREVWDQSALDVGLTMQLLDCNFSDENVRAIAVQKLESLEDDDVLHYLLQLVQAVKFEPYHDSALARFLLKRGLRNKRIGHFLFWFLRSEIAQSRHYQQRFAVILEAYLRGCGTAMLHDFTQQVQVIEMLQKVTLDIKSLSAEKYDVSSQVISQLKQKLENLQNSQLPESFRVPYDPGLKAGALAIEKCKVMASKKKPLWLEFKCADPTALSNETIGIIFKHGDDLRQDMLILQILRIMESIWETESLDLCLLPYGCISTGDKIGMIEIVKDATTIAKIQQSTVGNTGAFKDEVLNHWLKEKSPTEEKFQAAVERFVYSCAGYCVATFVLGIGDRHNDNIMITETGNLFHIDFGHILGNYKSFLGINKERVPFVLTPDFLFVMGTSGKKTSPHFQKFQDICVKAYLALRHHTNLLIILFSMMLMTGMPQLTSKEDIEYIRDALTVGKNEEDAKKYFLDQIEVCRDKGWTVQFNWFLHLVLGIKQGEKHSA

In turn, `CC(C)(C)OC(=O)CCNC(=O)Nc1nc2c(s1)-c1c(c(-c3cncnc3)nn1-c1ccccc1Cl)CC2` gave an IC50 of less than 800 nM.

`O=C(Nc1ccccc1)Nc1nc2c(s1)-c1c(c(-c3cncnc3)nn1-c1ccccc1Cl)CC2` returned an IC50 of less than 800 nM.

On to `CC(C)c1cnc(CCNC(=O)Nc2nc3c(s2)-c2c(c(C4CC4)nn2-c2ccccc2Cl)CC3)o1`, for which the IC50 was less than 800 nM.

`CN1CCC(n2nc(-c3cncnc3)c3c2-c2sc(NC(=O)NC[C@H]4CCCN4C(=O)N4CCCC4)nc2CC3)CC1` displayed an IC50 of less than 800 nM.

The molecule `CS(=O)(=O)Nc1cccc(NC(=O)Nc2nc3c(s2)-c2c(c(-c4ccccc4)nn2-c2ccccc2Cl)CC3)c1` showed an IC50 of less than 800 nM.

`O=C(Nc1nc2c(s1)-c1c(c(-c3cccnc3)nn1-c1ccccc1Cl)CC2)N1CCCC(c2nc3ccccc3[nH]2)C1` (configuration not stated) registered an IC50 of less than 800 nM.

In turn, `O=C(NCc1cc(C2CC2)n[nH]1)Nc1nc2c(s1)-c1c(c(-c3cncnc3)nn1-c1ccccc1Cl)CC2` came in with an IC50 of less than 800 nM.

Turning to `CC(C)c1noc(CCNC(=O)Nc2nc3c(s2)-c2c(c(-c4cccnc4)nn2-c2ccccc2Cl)CC3)n1`, the IC50 was less than 800 nM.

On to `CCc1noc(CCNC(=O)Nc2nc3c(s2)-c2c(c(-c4cccnc4)nn2C2CCN(C)CC2)CC3)n1`, for which the IC50 is less than 800 nM.

`CC(C)c1nnc(CCNC(=O)Nc2nc3c(s2)-c2c(c(C4CC4)nn2-c2ccccc2Cl)CC3)o1` had an IC50 of less than 800 nM.

For `NC(=O)Nc1nc2c(s1)-c1c(c(-c3cncnc3)nn1-c1ccccc1Cl)CC2`, the concentration for half-maximal inhibition (IC50) was less than 800 nM.

With `CN1CCN(C(=O)CCNC(=O)Nc2nc3c(s2)-c2c(c(-c4ccccc4)nn2-c2ccccc2Cl)CC3)CC1`, the IC50 is less than 800 nM.

Molecule `CC(C)(C)OC(=O)NCCNC(=O)Nc1nc2c(s1)-c1c(c(-c3ccccc3)nn1-c1ccccc1Cl)CC2` had an IC50 of less than 800 nM.

On to `CCn1cnc(CCNC(=O)Nc2nc3c(s2)-c2c(c(-c4cncnc4)nn2-c2ccccc2Cl)CC3)c1`, for which the IC50 was less than 800 nM.

Consider `O=C(NCC1CCCN(c2ncccn2)C1)Nc1nc2c(s1)-c1c(c(-c3cccnc3)nn1-c1ccccc1Cl)CC2` (configuration not stated), for which the IC50 is less than 800 nM.

The molecule `CC(C)(C)OC(=O)N1CCC[C@@H]1CNC(=O)Nc1nc2c(s1)-c1c(c(-c3cncnc3)nn1-c1ccccc1F)CC2` yielded an IC50 of less than 800 nM.

Regarding `COc1cccc(CNC(=O)Nc2nc3c(s2)-c2c(c(-c4cccnc4)nn2C2CCN(C4CCCC4)CC2)CC3)c1`, the IC50 was less than 800 nM.

The molecule `CC(C)(C)OC(=O)N1CCC[C@H]1CNC(=O)Nc1nc2c(s1)-c1c(c(-c3cncnc3)nn1-c1ccccc1Cl)CC2` showed an IC50 of less than 800 nM.

`O=C(Nc1nc2c(s1)-c1c(c(-c3cncnc3)nn1-c1ccccc1Cl)CC2)N1CCC(NC(=O)C(F)(F)F)C1` (configuration not stated): the IC50 was less than 800 nM.

Consider `CN(C)C(=O)CCNC(=O)Nc1nc2c(s1)-c1c(c(-c3cccnc3)nn1C1CCN(C3CCCC3)CC1)CC2`, for which the IC50 was less than 800 nM.

`O=C(Nc1nc2c(s1)-c1c(c(-c3cccnc3)nn1-c1ccccc1Cl)CC2)N1CCC2(CC1)C(=O)NCN2c1ccccc1`: the IC50 is less than 800 nM.

`CC(C)(C)OC(=O)CCNC(=O)Nc1nc2c(s1)-c1c(c(-c3cccnc3)nn1-c1ccccc1Cl)CC2` showed an IC50 of less than 800 nM.

With `CCOC(=O)N1CC[C@H](CNC(=O)Nc2nc3c(s2)-c2c(c(-c4cncnc4)nn2-c2ccccc2Cl)CC3)C1`, the IC50 was less than 800 nM.

With `CCc1cccc(CNC(=O)Nc2nc3c(s2)-c2c(c(-c4cccnc4)nn2-c2ccccc2Cl)CC3)c1`, the IC50 was less than 800 nM.

As for `CNC(=O)[C@H](C)NC(=O)Nc1nc2c(s1)-c1c(c(-c3ccccc3)nn1-c1ccccc1Cl)CC2`, the IC50 was less than 800 nM.

Take `CCc1cnc(CCNC(=O)Nc2nc3c(s2)-c2c(c(-c4cccnc4)nn2-c2ccccc2Cl)CC3)o1`: the IC50 was less than 800 nM.

For the molecule `CN(C)C(=O)N1CCC[C@@H]1CNC(=O)Nc1nc2c(s1)-c1c(c(-c3cncnc3)nn1-c1ccccc1Cl)CC2`, the IC50 was less than 800 nM.

In turn, `CN1CCC(n2nc(-c3cccnc3)c3c2-c2sc(NC(=O)NCc4cccc(C(N)=O)c4)nc2CC3)CC1` yielded an IC50 of less than 800 nM.

For the molecule `CC(C)(C)OC(=O)NCc1ccccc1NC(=O)Nc1nc2c(s1)-c1c(c(-c3cccnc3)nn1-c1ccccc1Cl)CC2`, the IC50 is less than 800 nM.

`CC(C)c1cnc(CCNC(=O)Nc2nc3c(s2)-c2c(c(-c4ccccc4)nn2-c2cccc(Cl)c2)CC3)o1`: the IC50 is less than 800 nM.

In the case of `CCN1CCC(n2nc(-c3cccnc3)c3c2-c2sc(NC(=O)NCc4cccc(N5CCNC5=O)c4)nc2CC3)CC1`, the IC50 is less than 800 nM.

The molecule `NC(=O)Nc1nc2c(s1)-c1c(c(-c3cncnc3)nn1-c1ccccc1F)CC2` came in with an IC50 of less than 800 nM.

In the case of `CN1CCC(n2nc(-c3cncnc3)c3c2-c2sc(NC(=O)NC[C@H]4CCCN4C(=O)OC(C)(C)C)nc2CC3)CC1`, the IC50 is less than 800 nM.

As for `CC(C)(C)OC(=O)N[C@H]1CC[C@H](CNC(=O)Nc2nc3c(s2)-c2c(c(-c4cccnc4)nn2-c2ccccc2Cl)CC3)CC1`, the IC50 was less than 800 nM.

For `O=C(NCc1ccc(CN2CCNC2=O)cc1)Nc1nc2c(s1)-c1c(c(-c3cccnc3)nn1-c1ccccc1Cl)CC2`, the IC50 was less than 800 nM.

Molecule `CCc1nnc(CCNC(=O)Nc2nc3c(s2)-c2c(c(-c4ccccc4)nn2-c2cccc(Cl)c2)CC3)o1` had an IC50 of less than 800 nM.

Molecule `CCc1noc(CCNC(=O)Nc2nc3c(s2)-c2c(c(-c4ccccc4)nn2-c2cccc(Cl)c2)CC3)n1` registered an IC50 of less than 800 nM.

Turning to `CN1CCN(CCCNC(=O)Nc2nc3c(s2)-c2c(c(-c4cncnc4)nn2-c2ccccc2Cl)CC3)CC1`, the IC50 was less than 800 nM.

Turning to `CC(=O)Nc1cccc(CNC(=O)Nc2nc3c(s2)-c2c(c(-c4cccnc4)nn2-c2ccccc2Cl)CC3)c1`, the IC50 is less than 800 nM.

The molecule `O=C(Nc1nc2c(s1)-c1c(c(-c3ccccc3)nn1-c1ccccc1Cl)CC2)NC1CCS(=O)(=O)C1` (configuration not stated) gave an IC50 of less than 800 nM.

Consider `Cn1cc(CNC(=O)Nc2nc3c(s2)-c2c(c(-c4cccnc4)nn2C2CCN(C4CCCC4)CC2)CC3)cn1`, for which the IC50 is less than 800 nM.

In the case of `O=C(NC[C@@H]1CCCN1)Nc1nc2c(s1)-c1c(c(-c3cncnc3)nn1-c1ccccc1F)CC2`, the IC50 is less than 800 nM.

Molecule `CN(C)C(=O)[C@@H]1CCCC[C@H]1NC(=O)Nc1nc2c(s1)-c1c(c(-c3ccccc3)nn1-c1ccccc1Cl)CC2` gave an IC50 of less than 800 nM.

Turning to `CC(C)(C)OC(=O)N1CCN(c2cccc(NC(=O)Nc3nc4c(s3)-c3c(c(-c5cncnc5)nn3-c3ccccc3F)CC4)c2)CC1`, the half-maximal inhibitory concentration (IC50) was less than 800 nM.

In turn, `CC(C)(C)OC(=O)N1CCCCC1CNC(=O)Nc1nc2c(s1)-c1c(c(-c3cncnc3)nn1-c1ccccc1Cl)CC2` (configuration not stated) registered an IC50 of less than 800 nM.

Turning to `CN(C)C(=O)CNC(=O)Nc1nc2c(s1)-c1c(c(-c3cccnc3)nn1-c1ccccc1Cl)CC2`, the half-maximal inhibitory concentration (IC50) was less than 800 nM.

Take `O=C(NC[C@H]1CCN(C(=O)N2CCCC2)C1)Nc1nc2c(s1)-c1c(c(-c3ccccc3)nn1-c1cccc(Cl)c1)CC2`: the IC50 is less than 800 nM.

In turn, `O=C(NCCN1CCOCC1)Nc1nc2c(s1)-c1c(c(-c3cncnc3)nn1-c1ccccc1Cl)CC2` returned an IC50 of less than 800 nM.

Regarding `CC(C)(C)OC(=O)CCNC(=O)Nc1nc2c(s1)-c1c(c(-c3cccnc3)nn1C1CCN(C3CCCC3)CC1)CC2`, the IC50 was less than 800 nM.

Regarding `O=C(NC[C@H]1CCCN1)Nc1nc2c(s1)-c1c(c(-c3cncnc3)nn1-c1ccccc1F)CC2`, the IC50 was less than 800 nM.

Consider `O=C(NCCN1CCCC1=O)Nc1nc2c(s1)-c1c(c(-c3ccccc3)nn1-c1ccccc1Cl)CC2`, for which the IC50 was less than 800 nM.

`CN1CCC(n2nc(-c3cccnc3)c3c2-c2sc(NC(=O)NCCC(=O)N(C)C)nc2CC3)CC1`: the IC50 was less than 800 nM.

`CC(C)c1nnc(CCNC(=O)Nc2nc3c(s2)-c2c(c(-c4cccnc4)nn2-c2ccccc2Cl)CC3)o1` had an IC50 of less than 800 nM.

`O=C(Nc1nc2c(s1)-c1c(c(-c3ccccc3)nn1-c1ccccc1Cl)CC2)NC1CCN(S(=O)(=O)c2ccccc2)CC1`: the IC50 was less than 800 nM.

Turning to `COC(=O)N1CCC[C@@H]1CNC(=O)Nc1nc2c(s1)-c1c(c(-c3cncnc3)nn1-c1ccccc1Cl)CC2`, the IC50 was less than 800 nM.

`CC(C)c1cnc(CCNC(=O)Nc2nc3c(s2)-c2c(c(-c4cncnc4)nn2-c2ccccc2Cl)CC3)o1` came in with an IC50 of less than 800 nM.

`NCCNC(=O)Nc1nc2c(s1)-c1c(c(-c3ccccc3)nn1-c1ccccc1Cl)CC2`: the IC50 was less than 800 nM.

Consider `COc1cccc(CNC(=O)Nc2nc3c(s2)-c2c(c(-c4cncnc4)nn2-c2ccccc2Cl)CC3)c1`, for which the IC50 was less than 800 nM.

`O=C(NCC1CCCCN1)Nc1nc2c(s1)-c1c(c(-c3cncnc3)nn1-c1ccccc1Cl)CC2` (configuration not stated) returned an IC50 of less than 800 nM.

`O=C(NCCc1cn[nH]c1)Nc1nc2c(s1)-c1c(c(-c3cccnc3)nn1-c1ccccc1Cl)CC2` registered an IC50 of less than 800 nM.

`O=C(NCc1cccc(C(=O)NC2CCCCC2)c1)Nc1nc2c(s1)-c1c(c(-c3cccnc3)nn1-c1ccccc1Cl)CC2` registered an IC50 of less than 800 nM.

`O=C(Nc1nc2c(s1)-c1c(c(-c3cccnc3)nn1-c1ccccc1Cl)CC2)N1CCCCC1c1nc2ccccc2[nH]1` (configuration not stated) gave an IC50 of less than 800 nM.

With `C[C@@H](C(=O)N1CCC[C@@H]1CNC(=O)Nc1nc2c(s1)-c1c(c(-c3cncnc3)nn1-c1ccccc1Cl)CC2)N(C)C(=O)OC(C)(C)C`, the IC50 is less than 800 nM.

In turn, `O=C(NCc1cccc(OC(F)(F)F)c1)Nc1nc2c(s1)-c1c(c(-c3cncnc3)nn1-c1ccccc1Cl)CC2` came in with an IC50 of less than 800 nM.

Take `CCc1noc(CCNC(=O)Nc2nc3c(s2)-c2c(c(-c4cncnc4)nn2-c2ccccc2Cl)CC3)n1`: the IC50 was less than 800 nM.

In turn, `CC(C)(C)OC(=O)N1CCC[C@H]1CNC(=O)Nc1nc2c(s1)-c1c(c(-c3cccnc3)nn1-c1ccccc1Cl)CC2` had an IC50 of less than 800 nM.

On to `C[C@H](NC(=O)Nc1nc2c(s1)-c1c(c(-c3ccccc3)nn1-c1ccccc1Cl)CC2)C(=O)N1CCN(C)CC1`, for which the IC50 is less than 800 nM.

In the case of `CN1CCC(n2nc(-c3cccnc3)c3c2-c2sc(NC(=O)NCCc4nc(C5CC5)no4)nc2CC3)CC1`, the IC50 is less than 800 nM.

Regarding `O=C(Nc1nc2c(s1)-c1c(c(-c3cccnc3)nn1-c1ccccc1Cl)CC2)N1CCC(N2CCNC2=O)CC1`, the IC50 is less than 800 nM.

Regarding `NC(=O)Nc1nc2c(s1)-c1c(c(-c3cccnc3)nn1-c1ccc(S(N)(=O)=O)cc1Cl)CC2`, the IC50 was less than 800 nM.

As to `O=C(NCc1cccc(N2CCNC2=O)c1)Nc1nc2c(s1)-c1c(c(C3CC3)nn1-c1ccccc1Cl)CC2`, the IC50 is less than 800 nM.

For the molecule `CC(C)(C)OC(=O)N1CCCC(CNC(=O)Nc2nc3c(s2)-c2c(c(-c4cncnc4)nn2-c2ccccc2Cl)CC3)C1` (configuration not stated), the 50% inhibitory concentration (IC50) was less than 800 nM.
